Experiments:
MDA-MB-231 tumors = assay: TNBC Tumor Assay, s.c. MDA-MB-231 xenografts; format: in vivo, nu/nu mice
Source text: METHOD. TNBC Tumor Assay. Triple negative breast cancer (TNBC) is a subtype characterized by lack of gene expression for estrogen, progesterone and Her2/neu. TNBC is difficult to treat, and the resulting death rate in patients is reportedly disproportionately higher than for any other subtype of breast cancer. A TNBC xenograft model was generated in an analogous way to the KB and M109 models described herein by implanting MDA-MB-231 breast cancer cells in nu/nu mice. Dosing was initiated when the s.c. tumors have an average volume between 110-150 (generally 130) mm^3 (t0), typically 17 days post tumor inoculation (PTI). Test animals (5/group) were injected i.v., generally three times a week (TIW), for 2-3 weeks with varying doses, such as with 1 μmol/kg to 5 μmol/kg, of the drug delivery conjugate or with an equivalent dose volume of PBS (control), unless otherwise indicated. Dosing solutions were prepared fresh each day in PBS and administered through the lateral tail vein of the mice.

KB-DR150 tumors = assay: Vinca resistant KB-DR150 tumor model; format: in vivo, immunodeficient (XID) nu/nu mice
[1] = tested on: M109 (lung carcinoma) tumors; assay: Inhibition of tumor growth, s.c. M109 tumors; format: in vivo, nu/nu mice
Description: METHOD. Inhibition of Tumor Growth in Mice. Four to seven week-old mice (Balb/c or nu/nu strains) were purchased from Harlan Sprague Dawley, Inc. (Indianapolis, Ind.). Normal rodent chow contains a high concentration of folic acid (6 mg/kg chow); accordingly, test animals were maintained on a folate-free diet (Harlan diet #TD00434) for about 1 week before tumor implantation to achieve serum folate concentrations close to the range of normal human serum, and during the Method. For tumor cell inoculation, 1×10^6 M109 cells (a syngeneic lung carcinoma) in Balb/c strain, or 1×10^6 KB cells in nu/nu strain, in 100 μL were injected in the subcutis of the dorsal medial area (right axilla). Tumors were measured in two perpendicular directions every 2-3 days using a caliper, and their volumes were calculated as 0.5×L×W^2, where L=measurement of longest axis in mm and W=measurement of axis perpendicular to L in mm.
Test animals (5/group) ere injected i.v., generally three times a week TIW), for 3 weeks with varying doses, such as with 1 μmol/kg to 5 μmol/kg, of the drug delivery conjugate or with an equivalent dose volume of PBS (control), unless otherwise indicated. Dosing solutions were prepared fresh each day in PBS and administered through the lateral tail vein of the mice.

ST040 tumors = assay: Endometrial PDX tumor model; format: in vivo, Balb/c nu/nu mice; settings: combined with Paclitaxel 15 mg/kg
Description: (§1) Female Balb/c nu/nu mice were fed ad libitum with folate-deficient chow (Harlan diet #TD01013) for the duration of the experiment. Primary human Endometrial model ST040, TNBC models 5T502 and ST738 and Ovarian model ST024 fragments (2-4 mm in diameter) were inoculated subcutaneously at the right flank of each mouse. Mice were randomized into 6 experimental groups of 5 or 3 mice each and test articles were injected through the lateral tail vein under sterile conditions in a volume of 200 μL of phosphate-buffered saline (PBS).
(§2) Growth of each s.c. tumor was followed by measuring the tumor two times per week until a volume of 1200 mm^3 was reached. Tumors were measured in two perpendicular directions using Vernier calipers, and their volumes were calculated as 0.5×L×W^2, where L=measurement of longest axis in mm and W=measurement of axis perpendicular to L in mm.

ST502 tumors = assay: TNBC PDX tumor model; format: in vivo, Balb/c nu/nu mice; settings: combined with Eribulin mesylate 1 mg/kg
Description: as §1, §2

ST738 tumors = assay: TNBC PDX tumor model; format: in vivo, Balb/c nu/nu mice; settings: combined with Eribulin mesylate 1 mg/kg
Description: as §1, §2

ST024 tumors = assay: Ovarian PDX tumor model; format: in vivo, Balb/c nu/nu mice; settings: combined with Paclitaxel 15 mg/kg
Description: as §1, §2

LU1147 NSCLC tumors = assay: Huprime NSCLC PDX tumor model; format: in vivo, Balb/c nu/nu mice; settings: combined with Docetaxel (one dose of 15 mg/kg)
Description: (§3) Female Balb/c nu/nu mice were fed ad libitum with folate-deficient chow (Harlan diet #TD01013) for the duration of the experiment. Primary human NSCLC models LU1147 or LU2505 fragments (2-4 mm in diameter) were inoculated subcutaneously at the right flank of each mouse. Mice were randomized into experimental groups of 7 mice and test articles were injected through the lateral tail vein under sterile conditions in a volume of 200 μL of phosphate-buffered saline (PBS). These studies were performed at Crown Bioscience (Beijing) Inc., Ground Floor, Light Muller Building, Changping Sector of Zhongguancun Scientific Park, No. 21 Huoju Road, Changping District, Beijing, P.R. China.
as §2

LU2505 NSCLC tumors = assay: Huprime NSCLC PDX tumor model; format: in vivo, Balb/c nu/nu mice; settings: in combination with Docetaxel
Description: as §3, §2

[2] = EC1456 1.5 μmol/kg two times a week for two weeks
[3] = EC1456 3 μmol/kg once a week for two weeks
[4] = EC1456 2 μmol/kg two times a week for two weeks
[5] = EC1456 4 μmol/kg once a week for two weeks

`CCCC(=O)OCN(C(=O)[C@@H](NC(=O)[C@H]1CCCCN1C)C(C)CC)[C@H](C[C@@H](OC(C)=O)c1nc(C(=O)N[C@@H](Cc2ccc(O)cc2)C[C@H](C)C(=O)NNC(=O)OCCSSC[C@@H](NC(=O)[C@H](CCC(=O)NC[C@H](O)[C@@H](O)[C@H](O)[C@H](O)CO)NC(=O)[C@@H](CCC(=O)O)NC(=O)[C@H](CCC(=O)NC[C@H](O)[C@@H](O)[C@H](O)[C@H](O)CO)NC(=O)[C@@H](CCC(=O)O)NC(=O)[C@H](CCC(=O)NC[C@H](O)[C@@H](O)[C@H](O)[C@H](O)CO)NC(=O)CC[C@@H](NC(=O)c2ccc(NCc3cnc4nc(N)[nH]c(=O)c4n3)cc2)C(=O)O)C(=O)O)cs1)C(C)C` (stereo in doubt) [EC1456] was tested, and the tumor regrowth (MDA-MB-231 tumors; 2 μmol/kg i.v. TIW 2 weeks, observation window nearly 135 days) was “regrowth did not occur”, the “complete responses (tumor volume reduced to zero)” value (MDA-MB-231 tumors; 2 μmol/kg intravenous, three times per week, 2 consecutive weeks) was 4 of 5 and the “efficacy of co-administration of EC1456 and doxorubicin” value (KB-DR150 tumors; EC1456 2 μmol/kg TIW×2 + DOXIL 5 mg/kg BIW×2) was “enhanced technical effect over both monotherapies”. The “efficacy of EC1456 alone compared to doxorubicin (DOXIL)” value (KB-DR150 tumors; EC1456 2 μmol/kg TIW×2 vs DOXIL 5 mg/kg BIW×2) was “improved efficacy over doxorubicin”, the “efficacy of co-administration of EC1456 and cisplatin” value ([1]; EC1456 2 μmol/kg TIW×2 + cisplatin 3 mg/kg BIW×2) was “enhanced technical effect over both monotherapies” and the “efficacy of EC1456 alone compared to cisplatin” value ([1]; EC1456 2 μmol/kg TIW×2 vs cisplatin 3 mg/kg BIW×2) was “improved efficacy over cisplatin”. The animal exhibiting cure (ST040 tumors; [2]) was 1 animal, the “animals exhibiting PRs” value (ST040 tumors; [2]) was 3 animals and the “animals exhibiting PR's” value (ST040 tumors; [3]) was 2 animals. For the same compound, the “animals exhibiting stable disease” value (ST040 tumors; [3]) was 3 animals, the “animals exhibiting CRs” value (ST502 tumors; [4]) was 5 animals and the animals exhibiting cures (ST502 tumors; [4]) was 2 animals. The “animals exhibiting CR's” value (ST502 tumors; [5]) was 3 animals, the “animals exhibiting PR's” value (ST502 tumors; [5]) was 4 animals and the animals exhibiting cures (ST738 tumors; [4]) was 7 animals. The “animals exhibiting PR's” value (ST738 tumors; [5]) was 2 animals, the animals exhibiting cures (ST738 tumors; [5]) was 4 animals and the animals exhibiting cures (ST024 tumors; [4]) was 100%. For the same compound, the animals exhibiting cures (ST024 tumors; [5]) was 100%, the PRs (LU1147 NSCLC tumors; [4]) was 5 and the cures (LU1147 NSCLC tumors; [4]) was 2. The PRs (LU1147 NSCLC tumors; [5]) was 5, the cures (LU1147 NSCLC tumors; [5]) was 2 and the cures (LU2505 NSCLC tumors; [4]) was 100%. For the same compound, the cures (LU2505 NSCLC tumors; [5]) was 100%.

Source: patent publication US20170035894A1, “DRUG DELIVERY CONJUGATES FOR TREATING RESISTANT CANCER AND FOR USE IN COMBINATION THERAPY” (ENDOCYTE, INC., priority 2014, published 2017)
